Structures can show the parent of a compound that is named as a salt.
How the values were obtained:
BCS classification = format: physicochemical; details: free base
From the text: BCS Class 4 compounds normally have low bioavailability due to both low dissolution rate and permeability, and the limitation of permeability on absorption means that such salts would not usually be expected exert a substantial impact on absorption (See for example: Dressman et al. (2001) Pharm Tech. July: 68).

[1] = Plasma levels of Compound 1 in fasted dogs after oral dispersion doses, salt versus free base; format: in vivo, beagle dogs; details: crystalline salt compared to the free base and other salts
Description: Single doses of 150 mg were administered orally to fasted beagle dogs weighing 12-17 kg and about 2 to 6 years old on each of three dosing days. Each dosing day was 1 week apart.
All formulations were prepared extemporaneously just prior to dosing by adding 7.5 mL of the appropriate dispersing solution via a 10 mL disposable syringe, to vials containing 150 mg free base equivalents of the appropriate drug form, capping and vortex mixing for 30 seconds to form a dispersion.
The dispersion was removed from the vial using the disposable syringe and dosed to the animal via a gavage tube positioned into the stomach. The vials were rinsed twice by adding, for each of the two rinses, a separate 15 mL aliquot of water (total rinse volume=30 mL) via a 20 mL disposable syringe, capping, vortex mixing for 5 seconds, removing the wash solution from the vial using the disposable syringe and dosing to the animal via the gavage tube.
Dogs were fed about 400 g of Special Diet Services Laboratory Diet A each day and allowed water ad libitum. Whole blood (2 mL) in lithium heparin tubes were taken from the jugular vein immediately prior to dosing and at 0.5, 1, 2, 3, 4, 5, 6, 8, 12, 18, 24, 36 and 48 hours. The blood was centrifuged at 3000 rpm for 15 minutes and plasma was removed into plain blood tubes and the plasma stored at −20° C. until analysis. […]

[2] = Dissolution rate of the crystalline salt; format: physicochemical; details: crystalline salt compared to the free base and other salts

| BCS Class (BCS classification) | bioavailability [1] | dissolution rate [2] | SMILES |
| --- | --- | --- | --- |
| BCS Class 4 | – | – | Cn1cnc2c(F)c(Nc3ccc(Br)cc3Cl)c(C(=O)NOCCO)cc21 [Compound 1, 6-(4-bromo-2-chloro-phenylamino)-7-fluoro-3-methyl-3H-benzoimidazole-5-carboxylic acid (2-hydroxy-ethoxy)-amide] |
| – | particularly high | particularly high | Cn1cnc2c(F)c(Nc3ccc(Br)cc3Cl)c(C(=O)NOCCO)cc21 [hydrogen sulfate salt, 6-(4-bromo-2-chloro-phenylamino)-7-fluoro-3-methyl-3H-benzoimidazole-5-carboxylic acid (2-hydroxy-ethoxy)-amide hydrogen sulfate] |

— patent US9562017B2, “Hydrogen sulfate salt” (Array BioPharma Inc., priority 2005, dated 2017)
